Measurements published in ChEMBL document CHEMBL3046855, “Chemical control of Prosopis farcta (Banks and Sol.) Macbride in the Jordan Valley” (2007).

Each compound was assayed on Prosopis farcta (assay: Herbicidal activity against Prosopis farcta assessed as shoot fresh weight at 1000 l/ha applied twice (reference value: 4.18 metric tons/ha)).
Type: functional

Compound | Activity
CCOc1cc(Oc2ccc(C(F)(F)F)cc2Cl)ccc1[N+](=O)[O-] [OXYFLUORFEN] | 0.96 MT/ha
CNC.O=C(O)COc1ccc(Cl)cc1Cl [2,4-D-Dimethylammonium] | 0.8 MT/ha
Cc1cc(Cl)ccc1OC(C)C(=O)O (stereo unspecified) [MECOPROP] | 0.93 MT/ha
CCCCC(CC)COC(=O)COc1ccc(Cl)cc1Cl (stereo unspecified) | 0.8 MT/ha
O=C(O)COc1nc(Cl)c(Cl)cc1Cl [TRICLOPYR] | 1.07 MT/ha
O=C(O)CNCP(=O)(O)O [GLYPHOSATE] | 0.71 MT/ha
C[n+]1ccc(-c2cc[n+](C)cc2)cc1 [PARAQUAT] | 0.93 MT/ha

Each compound was assayed on Prosopis farcta (assay: Herbicidal activity against Prosopis farcta assessed as shoot dry weight at 1000 l/ha applied once (reference value: 0.833 metric tons/ha)).
Type: functional

Compound | Activity
CCOc1cc(Oc2ccc(C(F)(F)F)cc2Cl)ccc1[N+](=O)[O-] [OXYFLUORFEN] | 0.26 MT/ha
CNC.O=C(O)COc1ccc(Cl)cc1Cl [2,4-D-Dimethylammonium] | 0.593 MT/ha
Cc1cc(Cl)ccc1OC(C)C(=O)O (stereo unspecified) [MECOPROP] | 0.423 MT/ha
CCCCC(CC)COC(=O)COc1ccc(Cl)cc1Cl (stereo unspecified) | 0.625 MT/ha
O=C(O)COc1nc(Cl)c(Cl)cc1Cl [TRICLOPYR] | 0.567 MT/ha
O=C(O)CNCP(=O)(O)O [GLYPHOSATE] | 0.491 MT/ha
C[n+]1ccc(-c2cc[n+](C)cc2)cc1 [PARAQUAT] | 0.593 MT/ha

What follows are compounds tested on Prosopis farcta (assay: Herbicidal activity against Prosopis farcta assessed as shoot dry weight at 1000 l/ha applied once followed by harvest measured after vegetative regrowth (reference value: 1.593 metric tons/ha)).
Type: functional

Compound | Activity
CCOc1cc(Oc2ccc(C(F)(F)F)cc2Cl)ccc1[N+](=O)[O-] [OXYFLUORFEN] | 3.481 MT/ha
CNC.O=C(O)COc1ccc(Cl)cc1Cl [2,4-D-Dimethylammonium] | 0.144 MT/ha
Cc1cc(Cl)ccc1OC(C)C(=O)O (stereo unspecified) [MECOPROP] | 0.527 MT/ha
CCCCC(CC)COC(=O)COc1ccc(Cl)cc1Cl (stereo unspecified) | 0.213 MT/ha
O=C(O)COc1nc(Cl)c(Cl)cc1Cl [TRICLOPYR] | 0.231 MT/ha
O=C(O)CNCP(=O)(O)O [GLYPHOSATE] | 0.317 MT/ha
C[n+]1ccc(-c2cc[n+](C)cc2)cc1 [PARAQUAT] | 0.647 MT/ha

The compounds below were run on Prosopis farcta (assay: Herbicidal activity against Prosopis farcta assessed as shoot fresh weight at 1000 l/ha applied twice followed by harvest measured after vegetative regrowth (reference value: 3.53 metric tons/ha)).
Type: functional

Compound | Activity
CCOc1cc(Oc2ccc(C(F)(F)F)cc2Cl)ccc1[N+](=O)[O-] [OXYFLUORFEN] | 1.47 MT/ha
CNC.O=C(O)COc1ccc(Cl)cc1Cl [2,4-D-Dimethylammonium] | 0.58 MT/ha
Cc1cc(Cl)ccc1OC(C)C(=O)O (stereo unspecified) [MECOPROP] | 1.46 MT/ha
CCCCC(CC)COC(=O)COc1ccc(Cl)cc1Cl (stereo unspecified) | 0.1 MT/ha
O=C(O)COc1nc(Cl)c(Cl)cc1Cl [TRICLOPYR] | 0.05 MT/ha
O=C(O)CNCP(=O)(O)O [GLYPHOSATE] | 1.23 MT/ha
C[n+]1ccc(-c2cc[n+](C)cc2)cc1 [PARAQUAT] | 0.91 MT/ha

These compounds were tested on Prosopis farcta (assay: Herbicidal activity against Prosopis farcta assessed as shoot fresh weight at 1000 l/ha applied once followed by harvest measured after vegetative regrowth (reference value: 2.062 metric tons/ha)).
Type: functional

Compound | Activity
CCOc1cc(Oc2ccc(C(F)(F)F)cc2Cl)ccc1[N+](=O)[O-] [OXYFLUORFEN] | 4.511 MT/ha
CNC.O=C(O)COc1ccc(Cl)cc1Cl [2,4-D-Dimethylammonium] | 0.323 MT/ha
Cc1cc(Cl)ccc1OC(C)C(=O)O (stereo unspecified) [MECOPROP] | 0.655 MT/ha
CCCCC(CC)COC(=O)COc1ccc(Cl)cc1Cl (stereo unspecified) | 0.277 MT/ha
O=C(O)COc1nc(Cl)c(Cl)cc1Cl [TRICLOPYR] | 0.301 MT/ha
O=C(O)CNCP(=O)(O)O [GLYPHOSATE] | 0.432 MT/ha
C[n+]1ccc(-c2cc[n+](C)cc2)cc1 [PARAQUAT] | 0.757 MT/ha

What follows are compounds tested on Prosopis farcta (assay: Herbicidal activity against Prosopis farcta assessed as shoot dry weight at 1000 l/ha applied twice followed by harvest measured after vegetative regrowth (reference value: 2.784 metric tons/ha)).
Type: functional

Compound | Activity
CCOc1cc(Oc2ccc(C(F)(F)F)cc2Cl)ccc1[N+](=O)[O-] [OXYFLUORFEN] | 1.147 MT/ha
CNC.O=C(O)COc1ccc(Cl)cc1Cl [2,4-D-Dimethylammonium] | 0.511 MT/ha
Cc1cc(Cl)ccc1OC(C)C(=O)O (stereo unspecified) [MECOPROP] | 1.125 MT/ha
CCCCC(CC)COC(=O)COc1ccc(Cl)cc1Cl (stereo unspecified) | 0.063 MT/ha
O=C(O)COc1nc(Cl)c(Cl)cc1Cl [TRICLOPYR] | 0.05 MT/ha
O=C(O)CNCP(=O)(O)O [GLYPHOSATE] | 0.976 MT/ha
C[n+]1ccc(-c2cc[n+](C)cc2)cc1 [PARAQUAT] | 0.764 MT/ha

These compounds were tested on Prosopis farcta (assay: Herbicidal activity against Prosopis farcta assessed as shoot fresh weight at 1000 l/ha applied once (reference value: 1.72 metric tons/ha)).
Type: functional

Compound | Activity
CCOc1cc(Oc2ccc(C(F)(F)F)cc2Cl)ccc1[N+](=O)[O-] [OXYFLUORFEN] | 0.6 MT/ha
CNC.O=C(O)COc1ccc(Cl)cc1Cl [2,4-D-Dimethylammonium] | 1.27 MT/ha
Cc1cc(Cl)ccc1OC(C)C(=O)O (stereo unspecified) [MECOPROP] | 0.9 MT/ha
CCCCC(CC)COC(=O)COc1ccc(Cl)cc1Cl (stereo unspecified) | 1.33 MT/ha
O=C(O)COc1nc(Cl)c(Cl)cc1Cl [TRICLOPYR] | 1.21 MT/ha
O=C(O)CNCP(=O)(O)O [GLYPHOSATE] | 1.05 MT/ha
C[n+]1ccc(-c2cc[n+](C)cc2)cc1 [PARAQUAT] | 1.27 MT/ha

What follows are compounds tested on Prosopis farcta (assay: Herbicidal activity against Prosopis farcta assessed as shoot dry weight at 1000 l/ha applied twice (reference value: 1.528 metric tons/ha)).
Type: functional

Compound | Activity
CCOc1cc(Oc2ccc(C(F)(F)F)cc2Cl)ccc1[N+](=O)[O-] [OXYFLUORFEN] | 0.479 MT/ha
CNC.O=C(O)COc1ccc(Cl)cc1Cl [2,4-D-Dimethylammonium] | 0.345 MT/ha
Cc1cc(Cl)ccc1OC(C)C(=O)O (stereo unspecified) [MECOPROP] | 0.403 MT/ha
CCCCC(CC)COC(=O)COc1ccc(Cl)cc1Cl (stereo unspecified) | 0.365 MT/ha
O=C(O)COc1nc(Cl)c(Cl)cc1Cl [TRICLOPYR] | 0.461 MT/ha
O=C(O)CNCP(=O)(O)O [GLYPHOSATE] | 0.32 MT/ha
C[n+]1ccc(-c2cc[n+](C)cc2)cc1 [PARAQUAT] | 0.404 MT/ha
